Reference: patent US20240025887A1, “THIENYL AND CYCLOALKYL AMINOPYRIMIDINE COMPOUNDS AS INHIBITORS OF NUAK KINASES, COMPOSITIONS AND USES THEREOF” (Ontario Institute for Cancer Research (OICR), priority 2021, published 2024)
Counter-ions that a name gives are not always drawn.

Tests used:
Assay type in all cases: biochemical
[1] = target: T1, NUAK1 (Homo sapiens, UniProt O60285); test: NUAK1 counter screen
T1 sequence (O60285 1-661): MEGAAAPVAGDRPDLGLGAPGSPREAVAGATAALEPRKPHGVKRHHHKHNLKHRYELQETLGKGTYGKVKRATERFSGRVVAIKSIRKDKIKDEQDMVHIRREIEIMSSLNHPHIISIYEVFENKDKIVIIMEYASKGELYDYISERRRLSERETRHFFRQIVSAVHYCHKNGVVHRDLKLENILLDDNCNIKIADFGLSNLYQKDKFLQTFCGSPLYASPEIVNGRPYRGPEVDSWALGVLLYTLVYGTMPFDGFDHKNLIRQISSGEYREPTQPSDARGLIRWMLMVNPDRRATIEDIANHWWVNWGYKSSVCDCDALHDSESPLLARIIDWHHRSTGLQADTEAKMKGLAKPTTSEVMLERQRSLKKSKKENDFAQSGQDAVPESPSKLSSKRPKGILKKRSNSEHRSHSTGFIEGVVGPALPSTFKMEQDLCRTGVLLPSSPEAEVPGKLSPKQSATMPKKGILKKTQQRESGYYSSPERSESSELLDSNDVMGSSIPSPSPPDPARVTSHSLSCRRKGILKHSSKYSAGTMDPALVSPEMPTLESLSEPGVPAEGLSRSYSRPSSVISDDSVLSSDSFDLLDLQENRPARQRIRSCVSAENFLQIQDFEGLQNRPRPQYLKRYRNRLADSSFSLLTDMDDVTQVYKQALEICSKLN
Protocol: (§1) To identify small molecule NUAK inhibitors, a biochemical NUAK2 enzymatic assay was outsourced to Eurofins. This assay was done radiometrically using full-length, recombinant enzyme. NUAK2 (h) was incubated with 8 mM MOPS pH 7.0, 0.2 mM EDTA, 300 μM […], 10 mM magnesium acetate and […] (specific activity and concentration as required). The reaction was initiated by the addition of the Mg/ATP mix. After incubation for 40 minutes at room temperature, the reaction was stopped by the addition of phosphoric acid to a concentration of 0.5%. 10 μL of the reaction was then spotted onto a P30 filter mat and washed four times for 4 minutes in 0.425% phosphoric acid and once in methanol prior to drying and scintillation counting. Compounds were routinely counter screened against Aurora A and NUAK1. The results are shown in Table 1 where IC50s are reported the following ranges: A: 0.1-10 nM; B: 11-100 nM; C: 101-1000 nM; D: >1000 nM for the compounds of Formula I)

[2] = target: T2, Aurora A (Homo sapiens, UniProt O14965); test: Aurora A counter screen; conditions: read-out: AUR-A (IC50)
T2 sequence (O14965 1-403): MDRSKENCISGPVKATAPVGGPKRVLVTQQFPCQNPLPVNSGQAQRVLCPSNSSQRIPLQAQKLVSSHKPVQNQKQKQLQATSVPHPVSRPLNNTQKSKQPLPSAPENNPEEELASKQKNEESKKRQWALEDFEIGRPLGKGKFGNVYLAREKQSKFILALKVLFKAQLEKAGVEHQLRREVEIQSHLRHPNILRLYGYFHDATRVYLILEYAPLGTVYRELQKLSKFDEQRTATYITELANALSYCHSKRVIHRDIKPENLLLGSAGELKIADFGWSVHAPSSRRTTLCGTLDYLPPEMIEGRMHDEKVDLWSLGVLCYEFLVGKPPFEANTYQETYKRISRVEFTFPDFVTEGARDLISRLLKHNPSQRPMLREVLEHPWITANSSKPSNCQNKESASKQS
Protocol: as §1

[3] = target: T3, NUAK2 (h) (Homo sapiens, UniProt Q9H093); test: NUAK2 enzymatic assay (radiometric, Eurofins); conditions: for AUR-A (IC50, nM)/NUAK2 (IC50, nM): NUAK2 selectivity over Aurora-A, ratio of IC50s; for IC50: radiometric, full-length recombinant enzyme
T3 construct: This assay was done radiometrically using full-length, recombinant enzyme; purchased Eurofins
T3 sequence (Q9H093 1-628): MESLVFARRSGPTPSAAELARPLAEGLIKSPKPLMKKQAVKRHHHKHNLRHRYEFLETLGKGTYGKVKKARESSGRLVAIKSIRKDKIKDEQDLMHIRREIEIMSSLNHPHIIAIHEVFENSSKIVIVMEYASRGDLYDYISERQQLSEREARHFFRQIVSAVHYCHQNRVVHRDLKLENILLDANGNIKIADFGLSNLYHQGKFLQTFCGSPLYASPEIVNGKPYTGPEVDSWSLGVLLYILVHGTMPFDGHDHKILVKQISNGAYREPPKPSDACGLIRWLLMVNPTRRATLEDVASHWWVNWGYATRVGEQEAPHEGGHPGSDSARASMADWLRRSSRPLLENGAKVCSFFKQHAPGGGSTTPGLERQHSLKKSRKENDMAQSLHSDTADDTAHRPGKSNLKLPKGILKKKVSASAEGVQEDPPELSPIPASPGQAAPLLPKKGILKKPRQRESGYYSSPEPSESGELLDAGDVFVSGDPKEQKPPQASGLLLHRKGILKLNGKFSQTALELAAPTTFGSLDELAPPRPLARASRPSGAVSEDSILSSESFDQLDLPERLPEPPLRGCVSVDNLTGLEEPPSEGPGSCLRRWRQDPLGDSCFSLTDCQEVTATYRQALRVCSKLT
Protocol: as §1

IC50 [1] [µM]	IC50 [2] [µM]	AUR-A (IC50, nM)/NUAK2 (IC50, nM) [3]	IC50 [3] [µM]	SMILES
0.0001 to 0.01	0.101 to 1	71	0.0001 to 0.01	COc1c(Nc2ncc(Cl)c(Nc3ccsc3C(N)=O)n2)ccc(N2CCN(C)CC2)c1F [Compound C-2, reference compound]
0.0001 to 0.01	0.101 to 1	–	0.0001 to 0.01	CN1CCN(c2ccc(Nc3ncc(C(F)(F)F)c(Nc4ccsc4C(N)=O)n3)c(OC(F)F)c2)CC1 [Compound I-27, 3-((2-((2-(difluoromethoxy)-4-(4-methylpiperazin-1-yl)phenyl)amino)-5-(trifluoromethyl)pyrimidin-4-yl)amino)thiophene-2-carboxamide]
0.0001 to 0.01	0.101 to 1	–	0.011 to 0.1	CN(C)[C@@H]1CCN(c2ccc(Nc3ncc(Cl)c(Nc4ccsc4C(N)=O)n3)c(OC(F)F)c2)C1 [Compound I-55, (R)-3-((5-chloro-2-((2-(difluoromethoxy)-4-(3-(dimethylamino)pyrrolidin-1-yl)phenyl)amino)pyrimidin-4-yl)amino)thiophene-2-carboxamide]
0.0001 to 0.01	0.101 to 1	–	0.0001 to 0.01	CCN1CCN(C2CCN(c3ccc(Nc4ncc(C(F)(F)F)c(Nc5ccsc5C(N)=O)n4)c(OC(F)F)c3)CC2)CC1 [Compound I-77, 3-((2-((2-(difluoromethoxy)-4-(4-(4-ethylpiperazin-1-yl)piperidin-1-yl)phenyl)amino)-5-(trifluoromethyl)pyrimidin-4-yl)amino)thiophene-2-carboxamide]
0.011 to 0.1	> 1	–	0.011 to 0.1	NC(=O)c1ccsc1Nc1nc(Nc2ccc(N3CCNCC3)cc2OC(F)F)ncc1Cl [Compound I-2, 2-((5-chloro-2-((2-(difluoromethoxy)-4-(piperazin-1-yl)phenyl)amino)pyrimidin-4-yl)amino)thiophene-3-carboxamide]
0.0001 to 0.01	0.011 to 0.1	–	0.0001 to 0.01	CN1CCN(C2CCN(c3ccc(Nc4ncc(Cl)c(Nc5cscc5C(N)=O)n4)c(OC(F)F)c3)CC2)CC1 [Compound I-51, 4-((5-chloro-2-((2-(difluoromethoxy)-4-(4-(4-methylpiperazin-1-yl)piperidin-1-yl)phenyl)amino)pyrimidin-4-yl)amino)thiophene-3-carboxamide]
0.0001 to 0.01	0.101 to 1	–	0.0001 to 0.01	NC(=O)c1sccc1Nc1nc(Nc2ccc(N3CCC(N4CCCCC4)CC3)cc2OC(F)F)ncc1Cl [Compound I-58, 3-((2-((4-([1,4′-bipiperidin]-1′-yl)-2-(difluoromethoxy)phenyl)amino)-5-chloropyrimidin-4-yl)amino)thiophene-2-carboxamide]
0.0001 to 0.01	0.011 to 0.1	–	0.0001 to 0.01	CC(C)N1CCN(c2ccc(Nc3ncc(Cl)c(Nc4ccsc4C(N)=O)n3)c(OC(F)F)c2)CC1 [Compound I-12, 3-((5-chloro-2-((2-(difluoromethoxy)-4-(4-isopropylpiperazin-1-yl)phenyl)amino)pyrimidin-4-yl)amino)thiophene-2-carboxamide hydrochloride]
0.011 to 0.1	0.101 to 1	–	0.011 to 0.1	CN1CCN(C2CCN(c3ccc(Nc4ncc(Cl)c(N[C@@H]5CCC[C@@H]5C(N)=O)n4)c(OC(F)F)c3)CC2)CC1 [Compound I-83, (1S,2R)-2-((5-chloro-2-((2-(difluoromethoxy)-4-(4-(4-methylpiperazin-1-yl)piperidin-1-yl)phenyl)amino)pyrimidin-4-yl)amino)cyclopentane-1-carboxamide]
0.101 to 1	> 1	–	0.101 to 1	CN1CCN(C2CCN(c3ccc(Nc4ncc(Cl)c(Nc5ccsc5C(N)=O)n4)c(OC(F)F)c3F)CC2)CC1 [Compound I-40, 3-((5-chloro-2-((2-(difluoromethoxy)-3-fluoro-4-(4-(4-methylpiperazin-1-yl)piperidin-1-yl)phenyl)amino)pyrimidin-4-yl)amino)thiophene-2-carboxamide]
0.011 to 0.1	0.101 to 1	–	0.011 to 0.1	C[C@H]1CN(C)CCN1c1ccc(Nc2ncc(Cl)c(Nc3ccsc3C(N)=O)n2)c(OC(F)F)c1 [Compound I-29, (S)-3-((5-chloro-2-((2-(difluoromethoxy)-4-(2,4-dimethylpiperazin-1-yl)phenyl)amino)pyrimidin-4-yl)amino)thiophene-2-carboxamide]
0.011 to 0.1	0.011 to 0.1	–	0.011 to 0.1	NC(=O)c1sccc1Nc1nc(Nc2ccc(N3CCOCC3)cc2OC(F)F)ncc1Cl [Compound I-24, 3-((5-chloro-2-((2-(difluoromethoxy)-4-morpholinophenyl)amino)pyrimidin-4-yl)amino)thiophene-2-carboxamide]
0.011 to 0.1	0.101 to 1	–	0.0001 to 0.01	CN1C[C@H]2C[C@@H]1CN2c1ccc(Nc2ncc(Cl)c(Nc3ccsc3C(N)=O)n2)c(OC(F)F)c1 [Compound I-9, 3-((5-chloro-2-((2-(difluoromethoxy)-4-((1R,4R)-5-methyl-2,5-diazabicyclo[2.2.1]heptan-2-yl)phenyl)amino)pyrimidin-4-yl)amino)thiophene-2-carboxamide]
0.011 to 0.1	0.011 to 0.1	–	0.0001 to 0.01	C[C@@H]1CN(C2CCN(c3ccc(Nc4ncc(Cl)c(Nc5ccsc5C(N)=O)n4)c(OC(F)F)c3)CC2)C[C@@H](C)N1C [Compound I-69, 3-((5-chloro-2-((2-(difluoromethoxy)-4-(4-((3R,5R)-3,4,5-trimethylpiperazin-1-yl)piperidin-1-yl)phenyl)amino)pyrimidin-4-yl)amino)thiophene-2-carboxamide]
> 1	> 1	14	0.101 to 1	CC(C)Oc1cc(N2CCN(C)CC2)ccc1Nc1ncc(Cl)c(N[C@@H]2CCCC[C@@H]2C(N)=O)n1 [Compound C-6, reference compound]
0.011 to 0.1	0.101 to 1	–	0.101 to 1	NC(=O)c1sccc1Nc1nc(Nc2ccc(N3CCCC3)cc2OC(F)F)ncc1Cl [Compound I-28, 3-((5-chloro-2-((2-(difluoromethoxy)-4-(pyrrolidin-1-yl)phenyl)amino)pyrimidin-4-yl)amino)thiophene-2-carboxamide]
0.011 to 0.1	0.011 to 0.1	–	0.011 to 0.1	COCCN1CCN(c2ccc(Nc3ncc(Cl)c(Nc4ccsc4C(N)=O)n3)c(OC(F)F)c2)CC1 [Compound I-50, 3-((5-chloro-2-((2-(difluoromethoxy)-4-(4-(2-methoxyethyl)piperazin-1-yl)phenyl)amino)pyrimidin-4-yl)amino)thiophene-2-carboxamide]
